ChEMBL document CHEMBL5335853, “Acremosides A-G, Sugar Alcohol-Conjugated Acyclic Sesquiterpenes from a Sponge-Derived Acremonium Species” (J Nat Prod, 2024)

Tests used:
Hepatitis C virus = experiment: Antiviral activity against HCV infected in human Huh-7.5 cells assessed as inhibition of viral replication incubated for 72 hrs by qRT-PCR analysis; assay type: functional, organism-based, Hepacivirus hominis; details: Huh7.5, 72 h
Edwardsiella ictaluri = experiment: Antimicrobial activity against Edwardsiella ictaluri ATCC 33202 assessed as inhibition of microbial growth by CLSI protocol based two-fold serial broth microdilution method; assay type: functional
Pseudomonas aeruginosa = experiment: Antimicrobial activity against Pseudomonas aeruginosa ATCC 27853 assessed as inhibition of microbial growth by CLSI protocol based two-fold serial broth microdilution method; assay type: functional
Bacillus subtilis = experiment: Antimicrobial activity against Bacillus subtilis ATCC 6633 assessed as inhibition of microbial growth by CLSI protocol based two-fold serial broth microdilution method; assay type: functional
[1] = Cytotoxicity against human Huh7.5 cells assessed as reduction in cell viability by CCK-8 assay; assay type: toxicity, cell-based, Huh-7.5
[2] = Selectivity index, ratio of CC50 for cytotoxicity against human Huh7.5 cells to EC50 for antiviral activity against HCV infected in human Huh7.5 cells; assay type: toxicity, cell-based; details: read-out: Ratio CC50/EC50
Edwardsiella tarda = experiment: Antimicrobial activity against Edwardsiella tarda ATCC 15947 assessed as inhibition of microbial growth by CLSI protocol based two-fold serial broth microdilution method; assay type: functional
Escherichia coli = experiment: Antimicrobial activity against Escherichia coli ATCC 25922 assessed as inhibition of microbial growth by CLSI protocol based two-fold serial broth microdilution method; assay type: functional
[3] = tested on: Staphylococcus epidermidis; experiment: Antimicrobial activity against Staphylococcus epidermidis ATCC 12228 assessed as inhibition of microbial growth by CLSI protocol based two-fold serial broth microdilution method; assay type: functional
Staphylococcus aureus = experiment: Antimicrobial activity against Staphylococcus aureus ATCC 29213 assessed as inhibition of microbial growth by CLSI protocol based two-fold serial broth microdilution method; assay type: functional
Klebsiella pneumoniae = experiment: Antimicrobial activity against Klebsiella pneumoniae ATCC 700603 assessed as inhibition of microbial growth by CLSI protocol based two-fold serial broth microdilution method; assay type: functional

Structure (SMILES)	EC50 (Hepatitis C virus) [µM]	MIC (Edwardsiella ictaluri) [µg/mL]	MIC (Pseudomonas aeruginosa) [µg/mL]	MIC (Bacillus subtilis) [µg/mL]	CC50 [1] [µM]	selectivity ratio [2]	MIC (Edwardsiella tarda) [µg/mL]	MIC (Escherichia coli) [µg/mL]	MIC [3] [µg/mL]	MIC (Staphylococcus aureus) [µg/mL]	MIC (Klebsiella pneumoniae) [µg/mL]
CC(C)=CCC[C@](C)(O)[C@H](O)C[C@@H](OC(=O)Cc1ccccc1)/C(C)=C/COC([C@H](O)CO)[C@H](O)CO	6.5	≥ 128	≥ 128	≥ 128	> 200	> 31	≥ 128	≥ 128	≥ 128	≥ 128	≥ 128
CC(C)=CCC[C@](C)(O)[C@H](O)C[C@@H](OC(=O)Cc1ccccc1)/C(C)=C/CO[C@@H]([C@H](O)[C@H](O)CO)[C@H](O)CO	4.8	≥ 128	≥ 128	≥ 128	> 200	> 42	≥ 128	≥ 128	≥ 128	≥ 128	≥ 128
CC(C)=CCC[C@](C)(O)[C@H](O)C[C@@H](OC(=O)Cc1ccccc1)/C(C)=C/CO[C@@H]([C@H](O)[C@@H](C)O)[C@H](O)CO	7.9	≥ 128	≥ 128	≥ 128	> 200	> 25	≥ 128	≥ 128	≥ 128	≥ 128	≥ 128
COC[C@@H](O)[C@@H](OC/C=C(\C)[C@@H](C[C@@H](O)[C@@](C)(O)CCC=C(C)C)OC(=O)Cc1ccccc1)[C@H](O)[C@H](O)CO	14	≥ 128	≥ 128	≥ 128	55	> 4	≥ 128	≥ 128	≥ 128	≥ 128	≥ 128
CC(C)OC(=O)[C@H](C)N[P@](=O)(OC[C@H]1O[C@@H](n2ccc(=O)[nH]c2=O)[C@](C)(F)[C@@H]1O)Oc1ccccc1 [SOFOSBUVIR]	0.09	–	–	–	> 200	> 2220	–	–	–	–	–
CC(C)=C[C@@H]1C[C@](C)(O)[C@@H](C[C@@H](OC(=O)Cc2ccccc2)/C(C)=C/CO[C@@H]([C@H](O)[C@H](O)CO)[C@H](O)CO)O1	8.8	≥ 128	≥ 128	≥ 128	> 200	> 23	≥ 128	≥ 128	≥ 128	≥ 128	≥ 128
CC(C)=C[C@H]1C[C@](C)(O)[C@@H](C[C@@H](OC(=O)Cc2ccccc2)/C(C)=C/CO[C@@H]([C@H](O)[C@H](O)CO)[C@H](O)CO)O1	16	≥ 128	≥ 128	≥ 128	> 200	> 12	≥ 128	≥ 128	≥ 128	≥ 128	≥ 128
COC[C@@H](O)[C@@H](OC/C=C(\C)[C@@H](C[C@H]1O[C@H](C=C(C)C)C[C@]1(C)O)OC(=O)Cc1ccccc1)[C@H](O)[C@H](O)CO	12	≥ 128	≥ 128	≥ 128	> 200	> 17	≥ 128	≥ 128	≥ 128	≥ 128	≥ 128
